Consider five compounds from publication PMC8868586, “Comparison of Various Solvent Extracts and Major Bioactive Components from Unsalt-Fried and Salt-Fried Rhizomes of Anemarrhena asphodeloides for Antioxidant, Anti-α-Glucosidase, and Anti-Acetylcholinesterase Activities” (Antioxidants, 2022).

The structures appear in SMILES notation. pIC50: −log10 of the molar value. Where two headings read alike, the source gives them in different places.

Assay [1] can be described thus: Ferric-reducing antioxidant power (FRAP) assay. The protocol:
The FRAP assay was determined by the reference method with a slight modification. The working solution was mixed with acetate buffer (pH 3.6), ferric chloride solution (20 mM), and TPTZ solution (10 mM TPTZ in 40 mM HCl) in a proportion of 10:1:1, respectively, and freshly prepared before being used. A total of 900 μL of the working solution was warmed to 37 °C and then mixed with 100 μL of the diluted sample, blank or standard, in a microcentrifuge tube. The tubes were vortexed in a dry bath at 37 °C for 40 min. The absorbance was measured at 593 nm. The standard curve was linear between 0 and 100 mM Trolox. Results are expressed in mM TE/g dry weight. Additional dilution was needed if the FRAP value measured was over the linear range of the standard curve.
(§1) ABTS and DPPH assays have been widely utilized to assess the antioxidant activities of natural components. Both assays are mostly connected with the proton radical scavenging or hydrogen donating capacities of the target compounds [29]. Superoxide radical scavenging activity is measured by the PMS/NADH–NBT system. Superoxide anion radicals generated from dissolved oxygen by PMS/NADH coupling reaction reduce NBT. The decrease in absorbance at 560 nm with antioxidants indicates a reduction in superoxide anion radicals in the reaction mixture. The ferric-reducing antioxidant power (FRAP) measures the antioxidant potential of each extract through the reduction of ferric iron (Fe^3+) complex to ferrous iron (Fe^2+) complex by antioxidants present in the samples [31].

Assay [2] can be described thus: ABTS radical scavenging assay. The protocol: ABTS radical scavenging activity of each extract was determined as previously described.
as §1

Assay [3] in a line: DPPH radical scavenging assay. The protocol:
The DPPH radical scavenging assay was measured by the reference method.
as §1

The target in a further assay is T1, α-glucosidase (Saccharomyces cerevisiae, UniProt P53341).
T1 construct: purchased Sigma-Aldrich
T1 sequence (P53341 whole entry): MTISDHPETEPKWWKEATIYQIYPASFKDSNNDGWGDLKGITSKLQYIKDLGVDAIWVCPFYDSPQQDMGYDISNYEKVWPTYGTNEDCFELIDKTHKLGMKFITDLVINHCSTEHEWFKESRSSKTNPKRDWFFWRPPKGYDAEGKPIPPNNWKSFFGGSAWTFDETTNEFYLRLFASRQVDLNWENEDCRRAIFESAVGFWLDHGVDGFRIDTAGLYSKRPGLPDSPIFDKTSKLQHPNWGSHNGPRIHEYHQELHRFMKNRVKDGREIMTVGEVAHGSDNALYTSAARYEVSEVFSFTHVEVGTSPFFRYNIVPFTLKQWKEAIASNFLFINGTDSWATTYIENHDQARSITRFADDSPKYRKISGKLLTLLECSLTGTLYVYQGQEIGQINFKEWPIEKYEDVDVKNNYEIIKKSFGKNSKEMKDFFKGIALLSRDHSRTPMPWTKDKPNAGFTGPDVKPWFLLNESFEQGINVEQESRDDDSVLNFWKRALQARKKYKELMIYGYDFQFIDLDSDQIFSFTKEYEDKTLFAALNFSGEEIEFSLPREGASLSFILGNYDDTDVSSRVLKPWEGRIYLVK
In words: α-Glucosidase inhibitory activity assay. In kind it is biochemical. The settings on record: for IC50: pure compounds, read-out: α-Glucosidase IC50 (converted). The protocol: The inhibition assay of α-glucosidase was conducted using the procedure previously reported.

Assay [4] is described as follows: Superoxide radical scavenging assay (PMS/NADH-NBT system). The settings on record: isolated components. The protocol:
Superoxide anion radical (O2^•–) scavenging activity was measured using the previously described method.
as §1

The target of assay [5] is T2, acetylcholinesterase (AChE) (Homo sapiens, UniProt P22303).
T2 construct: purchased Sigma-Aldrich
T2 sequence (P22303 32-614): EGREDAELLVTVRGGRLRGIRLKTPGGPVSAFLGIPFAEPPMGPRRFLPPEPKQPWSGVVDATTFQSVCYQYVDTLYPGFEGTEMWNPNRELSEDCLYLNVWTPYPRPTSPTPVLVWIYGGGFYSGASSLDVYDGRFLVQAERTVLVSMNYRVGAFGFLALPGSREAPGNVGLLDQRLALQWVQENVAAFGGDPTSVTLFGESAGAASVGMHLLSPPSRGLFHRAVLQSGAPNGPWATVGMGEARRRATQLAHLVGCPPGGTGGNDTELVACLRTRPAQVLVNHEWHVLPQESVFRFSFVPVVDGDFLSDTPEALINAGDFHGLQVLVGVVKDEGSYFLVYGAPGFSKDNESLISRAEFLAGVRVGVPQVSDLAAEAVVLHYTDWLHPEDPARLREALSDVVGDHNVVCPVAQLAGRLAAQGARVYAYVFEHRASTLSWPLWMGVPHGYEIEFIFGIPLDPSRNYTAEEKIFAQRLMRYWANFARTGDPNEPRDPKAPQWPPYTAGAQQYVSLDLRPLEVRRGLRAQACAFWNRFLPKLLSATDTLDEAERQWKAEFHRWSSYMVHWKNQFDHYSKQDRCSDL
In words: biochemical. The settings on record: pure compounds; read-out: AchE Inhibitory Assay IC50 (converted). The protocol: The inhibition assay of acetylcholinesterase was conducted using the conditions previously reported with slight modifications. Briefly, 0.1 M sodium phosphate buffer (pH 8.0, 140 μL), test compound solution (20 μL), enzyme solution (15 μL of AChE 0.2 units/mL solution), and DTNB (15 mM, 10 μL) were mixed and incubated for 10 min at room temperature. Substrate (10 μL of AchI 15 mM solution) was then added and the reaction was initiated.

[6] abbreviates: Trolox equivalents per gram, isolated components.
Where [7] appears, read: solvent extracts of AA (non-salt-fried) series.
The mark [8] stands for this setting: solvent extracts of salt-fried AA series.

Turning to `Cc1cc(C(C)(C)C)c(O)c(C(C)(C)C)c1` [BHT, Butylated hydroxytoluene, reference compound], the “FRAP (TE)” value in assay [1] (Trolox equivalents per gram of extract, AA (non-salt-fried) series) is recorded as 4297.0 ± 48.4 mM/g; in assay [1] (Trolox equivalents per gram of extract, salt-fried AA series) it was 4216.1 ± 66.5 mM/g; in assay [1] (setting [6]), 3963.9 ± 104.0 mM/g. The entries for the “ABTS IC50” value in assay [2] (isolated components), in assay [2] (setting [7]) and in assay [2] (setting [8]) were 15.4 ± 0.9 µg/mL, 20.6 ± 0.2 µg/mL and 19.6 ± 0.4 µg/mL, respectively. In addition, the “DPPH IC50” value in assay [3] (isolated components) worked out at 27.2 ± 1.9 µg/mL; in assay [3] (setting [7]), 35.5 ± 0.6 µg/mL; in assay [3] (setting [8]) it was 39.7 ± 1.4 µg/mL.

As to `O=c1c2cc(O)c(O)cc2oc2c([C@@H]3O[C@H](CO)[C@@H](O)[C@H](O)[C@H]3O)c(O)cc(O)c12` [Isomangiferin, isomangiferin], the pIC50 on α-glucosidase is 3.36. Also, the “FRAP (TE)” value in assay [1] (setting [6]) was determined as 6359.9 ± 176.8 mM/g. Moreover, the “ABTS IC50” value in assay [2] (isolated components) is 5.6 ± 0.4 µg/mL. Also, in assay [4], the “Superoxide IC50” value came to 155.3 ± 13.8 µg/mL. In assay [3] (isolated components), the “DPPH IC50” value worked out at 16.7 ± 1.1 µg/mL. Also, the IC50 in assay [5] was 227 µM.

For `O=c1c2cc(O)c(O)cc2oc2cc(O)c([C@@H]3O[C@H](CO)[C@@H](O)[C@H](O)[C@H]3O)c(O)c12` [Mangiferin, mangiferin], the “potency against α-glucosidase relative to acarbose” value on α-glucosidase (fold stronger than acarbose) is recorded as “about five-fold”. Also, the IC50 was 146 µM on α-glucosidase and 161 µM in assay [5]. The “FRAP (TE)” value in assay [1] (setting [6]) is reported as 9371.4 ± 183.9 mM/g. Also, the “ABTS IC50” value in assay [2] (isolated components) came out at 3.7 ± 0.2 µg/mL. Also, the “Superoxide IC50” value in assay [4] was determined as 53.8 ± 2.4 µg/mL. Besides, the “DPPH IC50” value in assay [3] (isolated components) stood at 5.4 ± 0.3 µg/mL.

As for `C[C@H]1CC[C@@]2(OC1)O[C@H]1C[C@H]3[C@@H]4CC[C@@H]5C[C@@H](O[C@@H]6O[C@H](CO)[C@H](O)[C@H](O)[C@H]6O[C@@H]6O[C@H](CO)[C@@H](O)[C@H](O)[C@H]6O)CC[C@]5(C)[C@H]4CC[C@]3(C)[C@H]1[C@@H]2C` [Timosaponin A-III, timosaponin A-III], the figures for the IC50 (on α-glucosidase; in assay [5]) were 97.9 µM and 179 µM, respectively. In addition, the “FRAP (TE)” value in assay [1] (setting [6]) is on record as 19.5 ± 3.9 mM/g. In addition, in assay [2] (isolated components), the “ABTS IC50” value was over 200 µg/mL. Further, the “Superoxide IC50” value in assay [4] is over 200 µg/mL. Further, the “DPPH IC50” value in assay [3] (isolated components) was over 200 µg/mL.

`O=c1c2cc(O[C@@H]3O[C@H](CO)[C@@H](O)[C@H](O)[C@H]3O)c(O)cc2oc2cc(O)c([C@@H]3O[C@H](CO)[C@@H](O)[C@H](O)[C@H]3O)c(O)c12` [Neomangiferin, neomangiferin] showed a pIC50 against α-glucosidase of under 3.16. In assay [1] (setting [6]), the “FRAP (TE)” value turned out to be 83.1 ± 5.3 mM/g. Also, the “ABTS IC50” value in assay [2] (isolated components) is 81.9 ± 4.6 µg/mL. Besides, the “Superoxide IC50” value in assay [4] is over 200 µg/mL. In addition, in assay [3] (isolated components), the “DPPH IC50” value was over 200 µg/mL. Besides, the IC50 in assay [5] is 121 µM.
